The values below come from ChEMBL document CHEMBL1201862, “PubChem BioAssay data set” (2004).

Among the test systems are HCC 2998; ACHN; SF-539; HT-29; OVCAR-3; IGROV-1; OVCAR-5; EKVX; SK-OV-3; UACC-257; NCI-H460; RPMI-8226; NCI-H522; U-251; HCT-15; TK-10.
Holding throughout (test): DTP human tumour cell line panel, 48 h

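These data come from cells grown in 96-well plates and exposed to compound for 48 hours at five concentrations. GI50: concentration for 50% inhibition of growth.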 Calls of active or inactive are those of the source. Rule as the data show it: active = GI50 up to about 1.1 µM and inactive = higher.

As a reminder, the GI50 is the concentration giving 50% growth inhibition. On to `C/C(=C1/N=C(c2cc([N+](=O)[O-])ccc2Cl)N(C2=CC=C(Cl)CC2)C1=O)c1cc2ccccc2oc1=O`, for which the GI50 in the assay with HCC 2998 is 24.7 µM (inactive); with ACHN, 3.93 µM (inactive); in the assay with SF-539, 10.7 µM (inactive); in the assay on HT-29, 63.4 µM (inactive); with OVCAR-3, 36.8 µM (inactive); in the assay on IGROV-1, 27.6 µM (inactive). Further, the GI50 is 41.5 µM (inactive) in the assay with OVCAR-5; > 100 µM (inactive) in the assay with EKVX; > 100 µM (inactive) in the assay on SK-OV-3; 26.5 µM (inactive) in the assay with UACC-257; 28 µM (inactive) in the assay on NCI-H460; 32.4 µM (inactive) in the assay with RPMI-8226. Also, the GI50 was 14.4 µM (inactive) with NCI-H522 and 49.2 µM (inactive) with U-251.

`O=P1(Oc2ccc(Cl)cc2Cl)Oc2ccc3ccccc3c2-c2c(ccc3ccccc23)O1`: the GI50 with HCC 2998 is 24.9 µM (inactive); in the assay on SF-539, 21.6 µM (inactive); in the assay with HT-29, 42.1 µM (inactive); in the assay on HCT-15, 26.5 µM; in the assay on OVCAR-3, 22.5 µM (inactive); in the assay with IGROV-1, 26.9 µM (inactive). In addition, the GI50 in the assay with OVCAR-5 was 59.7 µM (inactive); in the assay with EKVX, 25.4 µM (inactive); in the assay on SK-OV-3 it was 59.7 µM (inactive); in the assay with UACC-257, 59 µM (inactive); with NCI-H460, 32.4 µM (inactive); with RPMI-8226 it was 18.2 µM (inactive). Further, the figures for the GI50 in the assay with NCI-H522 and with U-251 were 19.5 µM (inactive) and 21.1 µM (inactive), respectively.

On to `COc1cccc2c1C(=O)c1c(O)c3c(c(O)c1C2=O)C[C@@](O)(C(=O)CO)CC3OC1CC(NCCCCC(OC(C)=O)OC(C)=O)C(O)C(C)O1` (some centres not stated), for which the GI50 is 0.00223 µM (active) in the assay with HCC 2998; 0.00243 µM (active) in the assay with ACHN; 0.00212 µM (active) in the assay with SF-539; 0.00312 µM (active) with HT-29; 0.00246 µM in the assay with HCT-15; 0.00349 µM (active) in the assay on OVCAR-3. For the same molecule, the 50% growth inhibitory concentration (GI50) was 0.0046 µM (active) with IGROV-1; 0.0047 µM (active) with OVCAR-5; 0.003 µM (active) in the assay with SK-OV-3; 0.00468 µM (active) with UACC-257; 0.00115 µM (active) in the assay on NCI-H460; 0.00261 µM (active) with RPMI-8226. Besides, the values for the GI50 in the assay with NCI-H522, in the assay on U-251 and in the assay on TK-10 were 0.0015 µM (active), 0.00173 µM (active) and 0.00322 µM (active), respectively.

Turning to `Cc1cccc(/N=C2\NC(=O)C(CC(=O)Nc3ccc(C)cc3C)S2)c1` (configuration not stated), the GI50 with HCC 2998 was > 100 µM (inactive); in the assay on ACHN, > 100 µM (inactive); in the assay on SF-539 it was > 100 µM (inactive); in the assay on HT-29, > 100 µM (inactive); with HCT-15 it was > 100 µM; in the assay with OVCAR-3, 69 µM (inactive). For the same molecule, the GI50 was > 100 µM (inactive) in the assay on IGROV-1; 88.1 µM (inactive) in the assay with OVCAR-5; 47.1 µM (inactive) with EKVX; > 100 µM (inactive) in the assay with UACC-257; > 100 µM (inactive) with NCI-H460; 55.3 µM (inactive) with RPMI-8226. In addition, the GI50 in the assay with NCI-H522 is 64.3 µM (inactive); with U-251, > 100 µM (inactive); in the assay with TK-10, > 100 µM (inactive).

In the case of `COC(=O)C1=C(C)N(NC(=O)c2ccccc2)C2(O)CCCC(=O)C12C` (configuration not stated), the GI50 was > 100 µM (inactive) in the assay with ACHN; > 100 µM (inactive) in the assay on SF-539; > 100 µM (inactive) in the assay on HT-29; > 100 µM in the assay with HCT-15; > 100 µM (inactive) with OVCAR-3; > 100 µM (inactive) in the assay with IGROV-1. In addition, the GI50 in the assay with OVCAR-5, in the assay on SK-OV-3, in the assay on UACC-257, with RPMI-8226, in the assay with NCI-H522 and in the assay with U-251 was > 100 µM (inactive) throughout. Besides, the GI50 in the assay with TK-10 is > 100 µM (inactive).

As to `Cc1cc(O)nc(NN2C(Cl)C(=O)C2c2cccc(O)c2)n1` (configuration not stated), the GI50 in the assay with HCC 2998 was 15.1 µM (inactive); in the assay with ACHN it was 4.61 µM (inactive); with SF-539, 2.74 µM (inactive); in the assay on HT-29, 41.7 µM (inactive); in the assay on HCT-15 it was 5.74 µM; in the assay on OVCAR-3, 3.14 µM (inactive). Further, the GI50 in the assay on IGROV-1 was 4.8 µM (inactive); in the assay on OVCAR-5 it was 24.9 µM (inactive); with EKVX, 17.9 µM (inactive); with UACC-257, 18.7 µM (inactive); in the assay on NCI-H460, 4.82 µM (inactive); in the assay on RPMI-8226, 9.59 µM (inactive). The GI50 is 3.05 µM (inactive) in the assay with U-251 and 42.5 µM (inactive) in the assay on TK-10.

As to `O=[N+]([O-])c1cccc(C2=NOC3CCCC23)c1` (configuration not stated), the GI50 is > 100 µM (inactive) in the assay with HCC 2998; > 100 µM (inactive) in the assay on ACHN; > 100 µM (inactive) with SF-539; > 100 µM (inactive) in the assay on HT-29; > 100 µM with HCT-15; > 100 µM (inactive) in the assay on OVCAR-3. In addition, the GI50 in the assay on IGROV-1, with OVCAR-5, in the assay with EKVX, in the assay with SK-OV-3, in the assay with UACC-257 and in the assay on NCI-H460 was > 100 µM (inactive) throughout. Besides, the GI50 with RPMI-8226, in the assay on NCI-H522, with U-251 and in the assay on TK-10 was > 100 µM (inactive) in each case.

In the case of `CCOC(OCC)(OCC)C(Br)CC` (configuration not stated), the GI50 is > 100 µM (inactive) with HCC 2998; > 100 µM (inactive) in the assay with ACHN; > 100 µM (inactive) with SF-539; 53.6 µM (inactive) in the assay on HT-29; > 10 µM in the assay on HCT-15; > 100 µM (inactive) with OVCAR-3. For the same molecule, the GI50 in the assay with IGROV-1, with OVCAR-5, with EKVX, with SK-OV-3, in the assay with UACC-257 and with NCI-H460 was > 100 µM (inactive) in each case. The GI50 in the assay with RPMI-8226 is 18.8 µM (inactive); with NCI-H522, > 100 µM (inactive); in the assay with U-251 it was > 100 µM (inactive); in the assay on TK-10, > 100 µM (inactive).

For the molecule `CCN(CC)C(=S)SS(C)(=O)=O`, the GI50 in the assay with ACHN was 16.7 µM (inactive); in the assay on SF-539, 22 µM (inactive); with HT-29, 17.3 µM (inactive); with HCT-15 it was 13.4 µM; with IGROV-1, > 100 µM (inactive); in the assay with OVCAR-5 it was 19.4 µM (inactive). In addition, the GI50 with EKVX was 37.2 µM (inactive); with SK-OV-3 it was 75.7 µM (inactive); in the assay on UACC-257 it was 23.2 µM (inactive); in the assay with NCI-H522 it was < 0.01 µM (active); in the assay with U-251, 17.7 µM (inactive); in the assay with TK-10, 18.3 µM (inactive).

`CCOC(=O)C12CC1(C(=O)OCC)C1CCC2C1` (configuration not stated): the GI50 in the assay with HCC 2998 is > 100 µM (inactive); in the assay on ACHN it was > 100 µM (inactive); in the assay with HT-29, > 100 µM (inactive); with HCT-15 it was > 100 µM; in the assay with OVCAR-3 it was 97.3 µM (inactive); in the assay with IGROV-1, > 100 µM (inactive). Besides, the GI50 in the assay on OVCAR-5 was > 100 µM (inactive); in the assay with SK-OV-3, > 100 µM (inactive); with UACC-257 it was 44.7 µM (inactive); in the assay on NCI-H460, > 100 µM (inactive); with RPMI-8226 it was > 100 µM (inactive); in the assay on U-251 it was > 100 µM (inactive). Moreover, in the assay with TK-10, the GI50 is > 100 µM (inactive).

In the case of `O=C1CCCn2c3ccccc3c3ccnc1c32`, the GI50 with HCC 2998 is 41.4 µM (inactive); with SF-539, 30.8 µM (inactive); with HT-29, 23.9 µM (inactive); in the assay with HCT-15, 41.7 µM; with OVCAR-3, 37.7 µM (inactive); in the assay with IGROV-1, 34.2 µM (inactive). For the same molecule, the GI50 with OVCAR-5 is 35.2 µM (inactive); in the assay with EKVX it was 12.2 µM (inactive); in the assay with SK-OV-3, 44.7 µM (inactive); in the assay with UACC-257 it was 29.9 µM (inactive); with NCI-H460, 34 µM (inactive); in the assay on RPMI-8226, 23.6 µM (inactive). For the same molecule, the GI50 with NCI-H522 is 34.8 µM (inactive); with U-251, 40.8 µM (inactive).

In the case of `NC(CO)c1ccccc1` (configuration not stated), the GI50 in the assay with HCC 2998 was > 100 µM (inactive); in the assay on ACHN, > 100 µM (inactive); with SF-539, > 100 µM (inactive); in the assay with HT-29, > 100 µM (inactive); with HCT-15, > 100 µM; in the assay with OVCAR-3 it was > 100 µM (inactive). Besides, the GI50 in the assay on IGROV-1, in the assay with OVCAR-5, in the assay with EKVX, in the assay with SK-OV-3, in the assay with UACC-257 and in the assay with NCI-H460 was > 100 µM (inactive) in each case. Further, the GI50 in the assay with NCI-H522, in the assay with U-251 and in the assay with TK-10 was > 100 µM (inactive) each time.

As for `CC(=O)OCC1OC(Nc2nc(O)n(C)c(=O)c2-c2csc(N)n2)C(OC(C)=O)C(OC(C)=O)C1OC(C)=O` (configuration not stated), the GI50 with ACHN is > 100 µM (inactive); in the assay with SF-539, > 100 µM (inactive); with HT-29, > 100 µM (inactive); in the assay with HCT-15 it was > 100 µM; in the assay on OVCAR-3, > 100 µM (inactive); in the assay with IGROV-1 it was > 100 µM (inactive). Besides, the GI50 with OVCAR-5, in the assay on SK-OV-3, in the assay on UACC-257, in the assay with NCI-H460, in the assay on RPMI-8226 and in the assay on NCI-H522 was > 100 µM (inactive) in each case. Also, the GI50 in the assay with U-251 and in the assay on TK-10 was > 100 µM (inactive) throughout.

For `COc1ccc(/C(=N\NC(=O)NN)C(c2ccc(OC)cc2)C2(O)C(=O)Nc3c(Cl)cc(Cl)cc32)cc1` (configuration not stated), the GI50 with HCC 2998, in the assay with ACHN, in the assay with HT-29, with OVCAR-3, in the assay on IGROV-1 and in the assay with OVCAR-5 was > 100 µM (inactive) in each case. Also, the GI50 was > 100 µM (inactive) in the assay with EKVX; > 100 µM (inactive) in the assay on UACC-257; > 100 µM (inactive) in the assay with NCI-H460; 56.8 µM (inactive) in the assay on RPMI-8226; > 100 µM (inactive) with U-251; > 100 µM (inactive) in the assay with TK-10.
